Assay results taken from patent US9688710B2, “Inhibitors of sodium glucose cotransporter 1” (LEXICON PHARMACEUTICALS, INC., priority 2012, dated 2017).

Columns and labels:
[1] = molecular target: Human sodium/glucose co-transporter type 2 (SGLT2) (Homo sapiens (Human), UniProt P31639); experiment: In vitro human SGLT2 inhibition assay (14C-AMG uptake); type: cell-based; details: HEK293 cells expressing human HA-SGLT2, 14C-AMG uptake
Description: Human sodium/glucose co-transporter type 2 (SGLT2; accession number P31639; GI:400337) was cloned into pIRESpuro2 vector for mammalian expression (construct: HA-SGLT2-pIRESpuro2).
HEK293 cells were transfected with the human HA-SGLT2-pIRESpuro2 vector and the bulk stable cell line was selected in presence of 0.5 μg/mL of puromycin. Human HA-SGLT2 cells were maintained in DMEM media containing 10% FBS, 1% GPS and 0.5 μg/mL of puromycin.
The HEK293 cells expressing the human HA-SGLT2 were seeded in 384 well plates (30,000 cells/well) in DMEM media containing 10% FBS, 1% GPS and 0.5 μg/mL of puromycin, then incubated overnight at 37 C, 5% CO2. Cells were then washed with uptake buffer (140 mM NaCl, 2 mM KCl, 1 mM CaCl2, 1 mM MgCl2, 10 mM HEPES, 5 mM Tris, 1 mg/mL bovine serum albumin (BSA), pH 7.3). Twenty microliters of uptake buffer with or without testing compounds were added to the cells. Then, 20 microliters of uptake buffer containing ^14C-AMG (100 nCi) were added to the cells. The cell plates were incubated at 37° C., 5% CO2 for 1-2 hours. After washing the cells with uptake buffer, scintillation fluid was added (40 microliters/well) and ^14C-AMG uptake was measured by counting radioactivity using a scintillation coulter (TopCoulter NXT; Packard Instruments).

[2] = molecular target: Human sodium/glucose co-transporter type 1 (SGLT1) (Homo sapiens (Human), UniProt P13866); experiment: In vitro human SGLT1 inhibition assay (14C-AMG uptake); type: cell-based; parameters: key to SGLT1 (human SGLT1 IC50): ***: a value less than 0.01 μM; **: a value less than 0.1 μM; *: a value less than 1 μM; —: a value not measured or exceeding μM; details: HEK293 cells expressing human HA-SGLT1, 14C-AMG uptake
Description: Human sodium/glucose co-transporter type 1 (SGLT1; accession number NP_000334; GI: 4507031) was cloned into pIRESpuro2 vector for mammalian expression (construct: HA-SGLT1-pIRESpuro2).
HEK293 cells were transfected with the human HA-SGLT1-pIRESpuro2 vector and the bulk stable cell line was selected in presence of 0.5 μg/mL of puromycin. Human HA-SGLT1 cells were maintained in DMEM media containing 10% FBS, 1% GPS and 0.5 μg/mL of puromycin.
The HEK293 cells expressing the human HA-SGLT1 were seeded in 384 well plates (30,000 cells/well) in DMEM media containing 10% FBS, 1% GPS and 0.5 μg/mL of puromycin, then incubated overnight at 37 C, 5% CO2. Cells were then washed with uptake buffer (140 mM NaCl, 2 mM KCl, 1 mM CaCl2, 1 mM MgCl2, 10 mM HEPES, 5 mM Tris, 1 mg/mL bovine serum albumin (BSA), pH 7.3). Twenty microliters of uptake buffer with or without testing compounds were added to the cells. Then, 20 microliters of uptake buffer containing ^14C-AMG (100 nCi) were also added to cells. The cell plates were incubated at 37° C., 5% CO2 for 1-2 hours. After washing the cells with uptake buffer, scintillation fluid was added (40 microliters/well) and ^14C-AMG uptake was measured by counting radioactivity using a scintillation coulter (TopCoulter NXT; Packard Instruments).

Sequence of Human sodium/glucose co-transporter type 1 (SGLT1) (P13866 whole entry): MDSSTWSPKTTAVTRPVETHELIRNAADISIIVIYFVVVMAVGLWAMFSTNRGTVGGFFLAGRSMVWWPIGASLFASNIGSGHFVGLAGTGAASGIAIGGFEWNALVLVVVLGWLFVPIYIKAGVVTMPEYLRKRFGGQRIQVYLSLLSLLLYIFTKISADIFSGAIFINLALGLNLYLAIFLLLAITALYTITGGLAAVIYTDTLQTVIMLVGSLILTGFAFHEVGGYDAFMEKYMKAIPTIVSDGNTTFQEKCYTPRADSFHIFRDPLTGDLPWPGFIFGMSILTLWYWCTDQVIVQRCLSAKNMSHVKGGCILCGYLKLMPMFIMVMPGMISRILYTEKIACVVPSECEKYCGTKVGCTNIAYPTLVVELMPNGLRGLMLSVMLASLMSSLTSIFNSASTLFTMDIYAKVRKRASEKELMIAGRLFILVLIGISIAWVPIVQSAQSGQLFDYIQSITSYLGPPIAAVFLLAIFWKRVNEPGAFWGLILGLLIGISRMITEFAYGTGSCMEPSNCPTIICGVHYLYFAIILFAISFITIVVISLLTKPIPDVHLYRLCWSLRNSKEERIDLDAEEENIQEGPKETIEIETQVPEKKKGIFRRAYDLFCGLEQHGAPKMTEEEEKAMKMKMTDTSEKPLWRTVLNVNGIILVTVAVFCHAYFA
Sequence of Human sodium/glucose co-transporter type 2 (SGLT2) (P31639 whole entry): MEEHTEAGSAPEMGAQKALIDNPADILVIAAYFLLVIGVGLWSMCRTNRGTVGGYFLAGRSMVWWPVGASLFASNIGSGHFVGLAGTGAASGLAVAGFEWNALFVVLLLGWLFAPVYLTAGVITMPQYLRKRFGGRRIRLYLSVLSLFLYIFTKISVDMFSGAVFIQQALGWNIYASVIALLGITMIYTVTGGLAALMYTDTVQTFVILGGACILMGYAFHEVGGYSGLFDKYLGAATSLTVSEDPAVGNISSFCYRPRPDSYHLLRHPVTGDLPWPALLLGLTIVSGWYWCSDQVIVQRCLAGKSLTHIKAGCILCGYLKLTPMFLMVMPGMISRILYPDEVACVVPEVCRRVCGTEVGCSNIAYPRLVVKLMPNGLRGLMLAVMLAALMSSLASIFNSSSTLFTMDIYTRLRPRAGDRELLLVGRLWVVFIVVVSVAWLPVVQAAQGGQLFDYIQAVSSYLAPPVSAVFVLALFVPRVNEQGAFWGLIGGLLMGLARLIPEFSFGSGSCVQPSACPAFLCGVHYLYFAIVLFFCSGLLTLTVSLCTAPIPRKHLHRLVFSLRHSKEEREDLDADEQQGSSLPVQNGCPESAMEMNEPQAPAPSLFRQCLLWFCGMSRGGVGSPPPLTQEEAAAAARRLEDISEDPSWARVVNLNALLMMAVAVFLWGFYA

`CS[C@H]1O[C@@H](c2ccc(Cl)c(Cc3ccc(OCCCC(=O)N(CCO)CCO)cc3)c2)[C@H](O)[C@@H](O)[C@@H]1O` [4-(4-(2-chloro-5-((2S,3R,4R,5S,6R)-3,4,5-trihydroxy-6-(methylthio)tetrahydro-2H-pyran-2-yl)benzyl)phenoxy)-N,N-bis(2-hydroxyethyl)butanamide] gave an IC50 [1] of less than 10 nM and an IC50 [2] of less than 100 nM.

Work on `CCN(CC)C(=O)CCCOc1ccc(Cc2cc([C@@H]3O[C@H](SC)[C@@H](O)[C@H](O)[C@H]3O)ccc2Cl)cc1` [4-(4-(2-chloro-5-((2S,3R,4R,5S,6R)-3,4,5-trihydroxy-6-(methylthio)tetrahydro-2H-pyran-2-yl)benzyl)phenoxy)-N,N-diethylbutanamide] yielded an IC50 [1] of less than 10 nM and an IC50 [2] of less than 100 nM.

In the case of `CS[C@H]1O[C@@H](c2ccc(Cl)c(Cc3ccc(OCCCC(=O)NC(CO)(CO)CO)cc3)c2)[C@H](O)[C@@H](O)[C@@H]1O` [4-(4-(2-chloro-5-((2S,3R,4R,5S,6R)-3,4,5-trihydroxy-6-(methylthio)tetrahydro-2H-pyran-2-yl)benzyl)phenoxy)-N-(1,3-dihydroxy-2-(hydroxymethyl)propan-2-yl)butanamide], the IC50 [1] is reported as less than 10 nM and the IC50 [2] is reported as less than 100 nM.

`CS[C@H]1O[C@@H](c2ccc(Cl)c(Cc3ccc(OCCCC(=O)N(C)C(C)(C)CO)cc3)c2)[C@H](O)[C@@H](O)[C@@H]1O` [4-(4-(2-chloro-5-((2S,3R,4R,5S,6R)-3,4,5-trihydroxy-6-(methylthio)tetrahydro-2H-pyran-2-yl)benzyl)phenoxy)-N-(1-hydroxy-2-methylpropan-2-yl)-N-methylbutanamide] showed an IC50 [1] of less than 10 nM and an IC50 [2] of less than 100 nM.

`CS[C@H]1O[C@@H](c2ccc(Cl)c(Cc3ccc(OCCCC(=O)NC(C)(C)CO)cc3)c2)[C@H](O)[C@@H](O)[C@@H]1O` [4-(4-(2-chloro-5-((2S,3R,4R,5S,6R)-3,4,5-trihydroxy-6-(methylthio)tetrahydro-2H-pyran-2-yl)benzyl)phenoxy)-N-(1-hydroxy-2-methylpropan-2-yl)butanamide] gave an IC50 [1] of less than 10 nM and an IC50 [2] of less than 10 nM.

`CS[C@H]1O[C@@H](c2ccc(Cl)c(Cc3ccc(OCCCC(=O)NC4CCCCC4N4CCOCC4)cc3)c2)[C@H](O)[C@@H](O)[C@@H]1O` (stereo partly drawn) [4-(4-(2-chloro-5-((2S,3R,4R,5S,6R)-3,4,5-trihydroxy-6-(methylthio)tetrahydro-2H-pyran-2-yl)benzyl)phenoxy)-N-(2-morpholinocyclohexyl)butanamide] showed an IC50 [1] of less than 10 nM and an IC50 [2] of less than 100 nM.

In the case of `CCNC(=O)CCCOc1ccc(Cc2cc([C@@H]3O[C@H](SC)[C@@H](O)[C@H](O)[C@H]3O)ccc2Cl)cc1` [4-(4-(2-chloro-5-((2S,3R,4R,5S,6R)-3,4,5-trihydroxy-6-(methylthio)tetrahydro-2H-pyran-2-yl)benzyl)phenoxy)-N-ethylbutanamide], the IC50 [1] is reported as less than 10 nM and the IC50 [2] is reported as less than 100 nM.

Molecule `CS[C@H]1O[C@@H](c2ccc(Cl)c(Cc3ccc(OCCCC(=O)O)cc3)c2)[C@H](O)[C@@H](O)[C@@H]1O` [4-(4-(2-chloro-5-((2S,3R,4R,5S,6R)-3,4,5-trihydroxy-6-(methylthio)tetrahydro-2H-pyran-2-yl)benzyl)phenoxy)butanoic acid] has an IC50 [1] of less than 10 nM and an IC50 [2] of less than 1000 nM.

`CS[C@H]1O[C@@H](c2ccc(C)c(Cc3ccc(OCCCC(=O)N4CCN(C)CC4)cc3)c2)[C@H](O)[C@@H](O)[C@@H]1O` [4-(4-(2-methyl-5-((2S,3R,4R,5S,6R)-3,4,5-trihydroxy-6-(methylthio)tetrahydro-2H-pyran-2-yl)benzyl)phenoxy)-1-(4-methylpiperazin-1-yl)butan-1-one] was tested, and the IC50 [1] was less than 10 nM and the IC50 [2] was less than 100 nM.

Work on `CS[C@H]1O[C@@H](c2ccc(C)c(Cc3ccc(OCCCC(=O)NC4(C(=O)N5CCN(C)CC5)CCCC4)cc3)c2)[C@H](O)[C@@H](O)[C@@H]1O` [4-(4-(2-methyl-5-((2S,3R,4R,5S,6R)-3,4,5-trihydroxy-6-(methylthio)tetrahydro-2H-pyran-2-yl)benzyl)phenoxy)-N-(1-(4-methylpiperazine-1-carbonyl)cyclopentyl)butanamide] yielded an IC50 [1] of less than 10 nM and an IC50 [2] of less than 10 nM.

`CS[C@H]1O[C@@H](c2ccc(C)c(Cc3ccc(OCCCC(N)=O)cc3)c2)[C@H](O)[C@@H](O)[C@@H]1O` [4-(4-(2-methyl-5-((2S,3R,4R,5S,6R)-3,4,5-trihydroxy-6-(methylthio)tetrahydro-2H-pyran-2-yl)benzyl)phenoxy)butanamide] was tested, and the IC50 [1] was less than 10 nM and the IC50 [2] was less than 100 nM.

`CS[C@H]1O[C@@H](c2ccc(C)c(Cc3ccc(OCCCC(=O)O)cc3)c2)[C@H](O)[C@@H](O)[C@@H]1O` [4-(4-(2-methyl-5-((2S,3R,4R,5S,6R)-3,4,5-trihydroxy-6-(methylthio)tetrahydro-2H-pyran-2-yl)benzyl)phenoxy)butanoic acid] was tested, and the IC50 [1] was less than 100 nM and the “SGLT1 (human SGLT1 IC50)” value [2] was “—”.

`CS[C@H]1O[C@@H](c2ccc(C)c(Cc3ccc(CCCC(=O)N4CCN(C)CC4)cc3)c2)[C@H](O)[C@@H](O)[C@@H]1O` [4-(4-(2-methyl-5-((2S,3R,4R,5S,6R)-3,4,5-trihydroxy-6-(methylthio)tetrahydro-2H-pyran-2-yl)benzyl)phenyl)-1-(4-methylpiperazin-1-yl)butan-1-one] gave an IC50 [1] of less than 10 nM and an IC50 [2] of less than 100 nM.

With `CS[C@H]1O[C@@H](c2ccc(C)c(Cc3ccc(CCCC(=O)NC4(C(=O)N5CCN(C)CC5)CCCC4)cc3)c2)[C@H](O)[C@@H](O)[C@@H]1O` [4-(4-(2-methyl-5-((2S,3R,4R,5S,6R)-3,4,5-trihydroxy-6-(methylthio)tetrahydro-2H-pyran-2-yl)benzyl)phenyl)-N-(1-(4-methylpiperazine-1-carbonyl)cyclopentyl)butanamide] the IC50 [1] was less than 10 nM and the IC50 [2] was less than 10 nM.

With `CS[C@H]1O[C@@H](c2ccc(C)c(Cc3ccc(CCCC(=O)NC4(C(=O)N5CCN(C)CC5)CC4)cc3)c2)[C@H](O)[C@@H](O)[C@@H]1O` [4-(4-(2-methyl-5-((2S,3R,4R,5S,6R)-3,4,5-trihydroxy-6-(methylthio)tetrahydro-2H-pyran-2-yl)benzyl)phenyl)-N-(1-(4-methylpiperazine-1-carbonyl)cyclopropyl)butanamide] the IC50 [1] was less than 10 nM and the IC50 [2] was less than 10 nM.

With `CS[C@H]1O[C@@H](c2ccc(C)c(Cc3ccc(CCCC(=O)NCC(=O)N4CCN(C)CC4)cc3)c2)[C@H](O)[C@@H](O)[C@@H]1O` [4-(4-(2-methyl-5-((2S,3R,4R,5S,6R)-3,4,5-trihydroxy-6-(methylthio)tetrahydro-2H-pyran-2-yl)benzyl)phenyl)-N-(2-(4-methylpiperazin-1-yl)-2-oxoethyl)butanamide] the IC50 [1] was less than 10 nM and the IC50 [2] was less than 10 nM.

`CS[C@H]1O[C@@H](c2ccc(C)c(Cc3ccc(CCCC(=O)NC4(C(=O)N5CCN(C)CC5)CCOCC4)cc3)c2)[C@H](O)[C@@H](O)[C@@H]1O` [4-(4-(2-methyl-5-((2S,3R,4R,5S,6R)-3,4,5-trihydroxy-6-(methylthio)tetrahydro-2H-pyran-2-yl)benzyl)phenyl)-N-(4-(4-methylpiperazine-1-carbonyl)tetrahydro-2H-pyran-4-yl)butanamide] was tested, and the IC50 [1] was less than 10 nM and the IC50 [2] was less than 10 nM.

`CS[C@H]1O[C@@H](c2ccc(C)c(Cc3ccc(CCCC#N)cc3)c2)[C@H](O)[C@@H](O)[C@@H]1O` [4-(4-(2-methyl-5-((2S,3R,4R,5S,6R)-3,4,5-trihydroxy-6-(methylthio)tetrahydro-2H-pyran-2-yl)benzyl)phenyl)butanenitrile] was tested, and the IC50 [1] was less than 100 nM and the “SGLT1 (human SGLT1 IC50)” value [2] was “—”.

In the case of `CS[C@H]1O[C@@H](c2ccc(C)c(Cc3ccc(CCCC(=O)O)cc3)c2)[C@H](O)[C@@H](O)[C@@H]1O` [4-(4-(2-methyl-5-((2S,3R,4R,5S,6R)-3,4,5-trihydroxy-6-(methylthio)tetrahydro-2H-pyran-2-yl)benzyl)phenyl)butanoic acid], the IC50 [1] is reported as less than 10 nM and the IC50 [2] is reported as less than 100 nM.
